Laboratory results published in the supplement of paper PMC10307832.

Key:
Test in all cases: relative viability (nuclei count vs DMSO), 5 days (fraction); higher = more cells survive
[1] = compound: COc1cccc2c1C(=O)c1c(O)c3c(c(O)c1C2=O)C[C@@](O)(C(=O)CO)C[C@@H]3O[C@H]1C[C@H](N)[C@H](O)[C@H](C)O1 [Doxorubicin] + Nc1nc2[nH]cc(CCc3ccc(C(=O)N[C@@H](CCC(=O)O)C(=O)O)cc3)c2c(=O)[nH]1 [Pemetrexed] (partner 0.2 µM)
Procedure, shortened: (§1)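 Relative viability was taken as the ratio of nuclei in treated wells to nuclei in vehicle wells. Lung cancer cell lines in 1536-well plates received compounds by pin tool one day after seeding, either one drug alone or a fixed anchor-drug dose plus five library-drug doses (not always all listed) in √10 steps. Nuclei were counted on 4× images after 5 days of treatment, and values are medians of duplicate plates.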

[2] = compound: COC1=C(C=C(C=C1)C2=CC3=NC=CN3C(=N2)NC4=C(C=CC=N4)C(=O)N)OC [BAY61-3606] + COc1cccc2cc(-c3nc([C@H]4CC[C@H](C(=O)O)CC4)n4ncnc(N)c34)[nH]c12 [OSI-027] (partner 0.5 µM)
Procedure, shortened: as §1

[3] = compound: COc1cccc2c1C(=O)c1c(O)c3c(c(O)c1C2=O)C[C@@](O)(C(=O)CO)C[C@@H]3O[C@H]1C[C@H](N)[C@H](O)[C@H](C)O1 [Doxorubicin]
Procedure, shortened: (§2)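 In 1536-well plates, lung cancer cell lines rested overnight at 37 °C before five library-drug doses (not always all listed), √10 apart, were pinned onto vehicle-anchored plates. Nuclei were counted with MetaXpress from 4× Hoechst images taken after 5 days without medium change. Viability compares treated-well with vehicle-well nuclei as a median over plates, and plates needed control CV below 25% plus at least one doubling to pass.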

[4] = compound: COC1=C(C=C(C=C1)C2=CC3=NC=CN3C(=N2)NC4=C(C=CC=N4)C(=O)N)OC [BAY61-3606]
Procedure, shortened: as §2

NCI-H2087
relative viability ([1]; first compound 0.001 µM): 0.577
relative viability ([1]; first compound 0.003162 µM): 0.731
relative viability ([1]; first compound 0.01 µM): 0.579
relative viability ([1]; first compound 0.03162 µM): 0.615
relative viability ([1]; first compound 0.1 µM): 0.668
relative viability ([2]; first compound 0.02 µM): 0.47
relative viability ([2]; first compound 0.06325 µM): 0.577
relative viability ([2]; first compound 0.2 µM): 0.557
relative viability ([2]; first compound 0.6325 µM): 0.555
relative viability ([2]; first compound 2 µM): 0.417
relative viability ([3]; 0.001 µM): 0.819
relative viability ([3]; 0.003162 µM): 1.15
relative viability ([3]; 0.01 µM): 1.01
relative viability ([3]; 0.03162 µM): 0.78
relative viability ([3]; 0.1 µM): 0.636
relative viability ([4]; 0.02 µM): 0.996
relative viability ([4]; 0.06325 µM): 1.15
relative viability ([4]; 0.2 µM): 1.18
relative viability ([4]; 0.6325 µM): 1.11
relative viability ([4]; 2 µM): 0.961

NCI-H2126
relative viability ([1]; first compound 0.001 µM): 0.623
relative viability ([1]; first compound 0.003162 µM): 0.738
relative viability ([1]; first compound 0.01 µM): 0.712
relative viability ([1]; first compound 0.03162 µM): 0.699
relative viability ([1]; first compound 0.1 µM): 0.681
relative viability ([2]; first compound 0.02 µM): 0.729
relative viability ([2]; first compound 0.06325 µM): 0.616
relative viability ([2]; first compound 0.2 µM): 0.751
relative viability ([2]; first compound 0.6325 µM): 0.695
relative viability ([2]; first compound 2 µM): 0.655
relative viability ([3]; 0.001 µM): 0.946
relative viability ([3]; 0.003162 µM): 1
relative viability ([3]; 0.01 µM): 0.97
relative viability ([3]; 0.03162 µM): 0.914
relative viability ([3]; 0.1 µM): 1.01
relative viability ([4]; 0.02 µM): 1.07
relative viability ([4]; 0.06325 µM): 0.931
relative viability ([4]; 0.2 µM): 0.944
relative viability ([4]; 0.6325 µM): 1.05
relative viability ([4]; 2 µM): 0.915

NCI-H2170
relative viability ([1]; first compound 0.001 µM): 0.248
relative viability ([1]; first compound 0.003162 µM): 0.265
relative viability ([1]; first compound 0.01 µM): 0.32
relative viability ([1]; first compound 0.03162 µM): 0.252
relative viability ([1]; first compound 0.1 µM): 0.274
relative viability ([2]; first compound 0.02 µM): 0.693
relative viability ([2]; first compound 0.06325 µM): 0.65
relative viability ([2]; first compound 0.2 µM): 0.8
relative viability ([2]; first compound 0.6325 µM): 0.776
relative viability ([2]; first compound 2 µM): 0.597
relative viability ([3]; 0.001 µM): 0.973
relative viability ([3]; 0.003162 µM): 0.992
relative viability ([3]; 0.01 µM): 0.93
relative viability ([3]; 0.03162 µM): 0.799
relative viability ([3]; 0.1 µM): 1.02
relative viability ([4]; 0.02 µM): 0.983
relative viability ([4]; 0.06325 µM): 0.978
relative viability ([4]; 0.2 µM): 0.974
relative viability ([4]; 0.6325 µM): 1.03
relative viability ([4]; 2 µM): 0.932

NCI-H2228
relative viability ([1]; first compound 0.001 µM): 0.335
relative viability ([1]; first compound 0.003162 µM): 0.344
relative viability ([1]; first compound 0.01 µM): 0.32
relative viability ([1]; first compound 0.03162 µM): 0.278
relative viability ([1]; first compound 0.1 µM): 0.244
relative viability ([2]; first compound 0.02 µM): 0.885
relative viability ([2]; first compound 0.06325 µM): 0.451
relative viability ([2]; first compound 0.2 µM): 0.594
relative viability ([2]; first compound 0.6325 µM): 0.495
relative viability ([2]; first compound 2 µM): 0.293
relative viability ([3]; 0.001 µM): 0.859
relative viability ([3]; 0.003162 µM): 1
relative viability ([3]; 0.01 µM): 0.822
relative viability ([3]; 0.03162 µM): 0.606
relative viability ([3]; 0.1 µM): 0.339
relative viability ([4]; 0.02 µM): 1.18
relative viability ([4]; 0.06325 µM): 0.922
relative viability ([4]; 0.2 µM): 0.944
relative viability ([4]; 0.6325 µM): 1.06
relative viability ([4]; 2 µM): 0.792

NCI-H2342
relative viability ([1]; first compound 0.001 µM): 0.802
relative viability ([1]; first compound 0.003162 µM): 0.843
relative viability ([1]; first compound 0.01 µM): 0.761
relative viability ([1]; first compound 0.03162 µM): 0.711
relative viability ([1]; first compound 0.1 µM): 0.818
relative viability ([2]; first compound 0.02 µM): 0.705
relative viability ([2]; first compound 0.06325 µM): 0.609
relative viability ([2]; first compound 0.2 µM): 0.596
relative viability ([2]; first compound 0.6325 µM): 0.682
relative viability ([2]; first compound 2 µM): 0.664
relative viability ([3]; 0.001 µM): 0.938
relative viability ([3]; 0.003162 µM): 1.03
relative viability ([3]; 0.01 µM): 0.929
relative viability ([3]; 0.03162 µM): 0.763
relative viability ([3]; 0.1 µM): 0.877
relative viability ([4]; 0.02 µM): 0.966
relative viability ([4]; 0.06325 µM): 1.02
relative viability ([4]; 0.2 µM): 0.908
relative viability ([4]; 0.6325 µM): 0.966
relative viability ([4]; 2 µM): 1.15

NCI-H2347
relative viability ([1]; first compound 0.001 µM): 0.417
relative viability ([1]; first compound 0.003162 µM): 0.424
relative viability ([1]; first compound 0.01 µM): 0.42
relative viability ([1]; first compound 0.03162 µM): 0.507
relative viability ([1]; first compound 0.1 µM): 0.463
relative viability ([2]; first compound 0.02 µM): 0.492
relative viability ([2]; first compound 0.06325 µM): 0.365
relative viability ([2]; first compound 0.2 µM): 0.457
relative viability ([2]; first compound 0.6325 µM): 0.487
relative viability ([2]; first compound 2 µM): 0.281
relative viability ([3]; 0.001 µM): 0.992
relative viability ([3]; 0.003162 µM): 1.08
relative viability ([3]; 0.01 µM): 0.945
relative viability ([3]; 0.03162 µM): 0.945
relative viability ([3]; 0.1 µM): 0.838
relative viability ([4]; 0.02 µM): 1.03
relative viability ([4]; 0.06325 µM): 1.05
relative viability ([4]; 0.2 µM): 1.04
relative viability ([4]; 0.6325 µM): 1
relative viability ([4]; 2 µM): 1.05

NCI-H2405
relative viability ([1]; first compound 0.001 µM): 1.05
relative viability ([1]; first compound 0.003162 µM): 1.11
relative viability ([1]; first compound 0.01 µM): 1.05
relative viability ([1]; first compound 0.03162 µM): 0.942
relative viability ([1]; first compound 0.1 µM): 0.445
relative viability ([2]; first compound 0.02 µM): 0.676
relative viability ([2]; first compound 0.06325 µM): 0.63
relative viability ([2]; first compound 0.2 µM): 0.64
relative viability ([2]; first compound 0.6325 µM): 0.756
relative viability ([2]; first compound 2 µM): 0.65
relative viability ([3]; 0.001 µM): 0.972
relative viability ([3]; 0.003162 µM): 1.04
relative viability ([3]; 0.01 µM): 1.08
relative viability ([3]; 0.03162 µM): 0.997
relative viability ([3]; 0.1 µM): 0.626
relative viability ([4]; 0.02 µM): 1.07
relative viability ([4]; 0.06325 µM): 0.984
relative viability ([4]; 0.2 µM): 0.977
relative viability ([4]; 0.6325 µM): 0.968
relative viability ([4]; 2 µM): 0.84
